From US5358945A, “Pyrimidine compound and pharmaceutically acceptable salts thereof” (Mitsui Petrochemical Industries, Ltd., priority 1990, dated 1994)

Columns and labels:
[1] = tested on: Mouse neuro 2a cells; assay: Neurite outgrowth of mouse neuroblastoma neuro 2a cells (Table 7); assay type: cell-based; details: mean ± S.D.
Experimental: The biological activities in vitro of the compounds of formula (I) on cells of the nervous system were tested. The cells tested were mouse neuroblastoma cell line neuro-2a (Dainippon Pharmaceutical Co., Ltd.) which have been established as the cells of the nervous system. The above nerve cells were grown in an incubator at 37° C. in the presence of 5% carbon dioxide gas exponentially, and the cultured for a certain period of time together with the compounds of formula (I).
The effects of the compounds of this invention on neuroblastoma cells were examined by the following method.
Mouse neuro 2a cells in the logarithmic growth period in the Dulbecco's modified Eagle's medium [DMEM, containing 100 units/ml of penicillin G sodium and 100 micrograms/ml of streptomycin sulfate] containing 10% of FCS were seeded in a 48-well plate so that the number of cells was 1,000 cells/well, and cultured for one day in 0.25 ml of the culture fluid in each well in an incubator containing 5% of carbon dioxide gas in air at 37° C. The medium was replaced by a medium containing each antibiotics and FCS and the cells were further cultured for 24 hours. Then, a 4% aqueous glutaraldehyde solution in the same amount as a medium (0.25 ml) was added, and the culture was left to stand at room temperature for 2 hours to fix the cells. After washing with water, a 0.05% aqueous solution of methylene blue was added to stain the cells. Under a microscope, the number of cells containing outgrown neurites (cells having at least one neurite with a length of at least two times as large as the long diameter of the cell) was counted visually, and the proportion of these cells in the entire cells was calculated. The well was observed over 5 or more visual fields (at least 2% of the entire surface area of the well) continuous to the left and right from a mark put at the center of the well, and more than 200 cells was counted. One drug compound was used in 6 different concentrations at most, and three runs were conducted for each concentration.

[2] = tested on: mouse; assay: Acute toxicity in mouse (Table 10); assay type: in vivo
Experimental: The acute toxicity of the compounds of the invention was examined by the following method.
Male ddy-strain 5-week old mice, 4-6 per group, were used as experimental animals. Each of the compounds was dissolved or suspended in saline and administered perorally (p.o.) or intraperitoneally (i.p.), and the toxicity of the compound was assessed 24 hours after the administration.

[3] = tested on: Mouse neuroblastoma cells NS-20Y; assay: Neurite appearance in mouse neuroblastoma NS-20Y cells (Table 8); assay type: cell-based;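 also: cells grown in polyornithine-coated dishes, with timing counted from the start of culture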
[4] = i.p., 24 hours after administration

SMILES | Ratio of the number of cells having neurites with a length of at least two times as large as the diameter of cells to the total number of cells ([1]; 0.1 mM) | Estimated LD50 [2, 4] | The number of cells in which neurites appeared/Total number of cells ([3]; 24 hour, 0.5 mM) | The number of cells in which neurites appeared/Total number of cells ([3]; 48 hour, 0.2 mM) | Ratio of the number of cells having neurites with a length of at least two times as large as the diameter of cells to the total number of cells ([1]; 0.3 mM) | The number of cells in which neurites appeared/Total number of cells ([3]; 24 hour, 0.1 mM) | The number of cells in which neurites appeared/Total number of cells ([3]; 48 hour, 0.1 mM) | also measured
CN(C(=O)c1ccccc1)c1ccnc(N2CCc3ccccc32)n1 [Compound 104] | 5.2 ± 2.9% | > 1000 mg/kg | 4/50 | 4/50 |  |  |  | Ratio of the number of cells having neurites with a length of at least two times as large as the diameter of cells to the total number of cells ([1]; 0.03 mM): 3.4 ± 1.0%; The number of cells in which neurites appeared/Total number of cells ([3]; 24 hour, 0.2 mM): 3/50; The number of cells in which neurites appeared/Total number of cells ([3]; 48 hour, 0.5 mM): 3/50
CN(C(=O)c1ccc(C(F)(F)F)cc1)c1ccnc(N2CCC(c3ccccc3)CC2)n1.Cc1ccc(S(=O)(=O)O)cc1 [Compound 112, 4-(N-methyl-4-trifluoromethylbenzoylamino)-2-(4-phenylpiperidino) pyrimidine p-toluenesulfonate] | 43.3 ± 1.8% | > 1000 mg/kg |  |  | 21.6 ± 3.3% | 3/50 | 2/50 | Ratio of the number of cells having neurites with a length of at least two times as large as the diameter of cells to the total number of cells ([1]; 0.03 mM): 5.9 ± 0.9%; Ratio of the number of cells having neurites with a length of at least two times as large as the diameter of cells to the total number of cells ([1]; 1 mM): 10.0 ± 3.8%
COC(=O)c1ccc(C(=O)N(C)c2ccnc(N3CCC(c4ccccc4)CC3)n2)cc1 [Compound 120] | 8.6 ± 5.5% |  |  | 3/50 |  |  |  | Ratio of the number of cells having neurites with a length of at least two times as large as the diameter of cells to the total number of cells ([1]; 0.03 mM): 12.6 ± 1.6%; Estimated LD50 ([2]; in vivo, ip): > 1000 mg/kg; The number of cells in which neurites appeared/Total number of cells ([3]; 24 hour, 0.2 mM): 3/50
CN(C(=O)c1ccc(C#N)cc1)c1ccnc(N2CCC(c3ccccc3)CC2)n1 [Compound 128] | 4.3 ± 1.6% | > 1000 mg/kg | 3/50 |  | 4.8 ± 1.2% |  | 4/50 | 
CN(C(=O)c1ccc(S(=O)(=O)F)cc1)c1ccnc(N2CCC(c3ccccc3)CC2)n1 [Compound 136] | 5.4 ± 1.7% | > 1000 mg/kg | 4/50 | 3/50 | 10.3 ± 0.2% |  |  | Ratio of the number of cells having neurites with a length of at least two times as large as the diameter of cells to the total number of cells ([1]; 0.03 mM): 5.2 ± 1.8%; Ratio of the number of cells having neurites with a length of at least two times as large as the diameter of cells to the total number of cells ([1]; 1 mM): 11.8 ± 1.4%
CN(C(=O)c1ccc2ccccc2c1)c1ccnc(N2CCC(c3ccccc3)CC2)n1 [Compound 144] | 4.2 ± 0.6% |  | 3/50 |  |  |  | 4/50 | Ratio of the number of cells having neurites with a length of at least two times as large as the diameter of cells to the total number of cells ([1]; 0.01 mM): 5.1 ± 0.9%
CN(C(=O)c1ccc(C=O)cc1)c1ccnc(N2CCC(c3ccccc3)CC2)n1 [Compound 152] |  |  |  |  |  | 2/50 | 3/50 | Ratio of the number of cells having neurites with a length of at least two times as large as the diameter of cells to the total number of cells ([1]; 0.01 mM): 5.2 ± 0.4%; Ratio of the number of cells having neurites with a length of at least two times as large as the diameter of cells to the total number of cells ([1]; 0.03 mM): 16.5 ± 1.8%; Estimated LD50 ([2]; in vivo, ip): > 1000 mg/kg
CN(C(=O)c1ccccc1)c1ccnc(N2Cc3ccccc3C2)n1 [Compound 184] | 0.9 ± 0.8% |  |  |  |  | 2/50 | 3/50 | Ratio of the number of cells having neurites with a length of at least two times as large as the diameter of cells to the total number of cells ([1]; 0.01 mM): 0.5 ± 0.8%
O=CN1CCN(c2ccnc(N3CCCCC3)n2)CC1 [Compound 223] |  | > 1000 mg/kg |  |  |  |  |  | 
O=C(O)/C=C\C(=O)O.O=CN1CCN(c2ccnc(N3CCCCC3)n2)CC1 [Compound 224, 4-(N-formylpiperazino)-2-piperidino pyrimidine maleate] | 8.9 ± 1.5% |  |  |  | 21.4 ± 3.3% | 2/50 | 3/50 | 
O=C(c1ccccc1)N1CCN(c2ccnc(N3CCCCC3)n2)CC1 [Compound 232] |  |  |  |  |  |  | 4/50 | Estimated LD50 ([2]; in vivo, ip): > 1000 mg/kg; The number of cells in which neurites appeared/Total number of cells ([3]; 24 hour, 0.2 mM): 3/50
CC(=O)N1CCN(c2ccnc(N3CCCCC3)n2)CC1 [Compound 240] |  |  | 5/50 | 5/50 |  | 3/50 |  | Estimated LD50 ([2]; in vivo, ip): > 1000 mg/kg; The number of cells in which neurites appeared/Total number of cells ([3]; 48 hour, 0.5 mM): 6/50
O=C(c1ccccc1)N1CCN(c2ccnc(N3CCC(c4ccccc4)CC3)n2)CC1 [Compound 248] |  | > 1000 mg/kg |  |  |  |  | 3/50 | The number of cells in which neurites appeared/Total number of cells ([3]; 24 hour, 0.2 mM): 3/50
CC(=O)N1CCN(c2ccnc(N3CCC(c4ccccc4)CC3)n2)CC1 [Compound 256] |  | > 1000 mg/kg |  | 3/50 |  | 3/50 | 4/50 | The number of cells in which neurites appeared/Total number of cells ([3]; 24 hour, 0.2 mM): 3/50
CN(C(=O)c1ccc(O)cc1)c1ccnc(N2CCC(c3ccccc3)CC2)n1 [Compound 264] |  | > 1000 mg/kg | 3/50 | 3/50 |  |  |  | 
O=C1CCCN1c1ccnc(N2CCCCC2)n1 [Compound 272] | 10.5 ± 2.5% |  |  |  | 25.1 ± 2.7% |  |  | Ratio of the number of cells having neurites with a length of at least two times as large as the diameter of cells to the total number of cells ([1]; 0.01 mM): 5.4 ± 0.4%; Ratio of the number of cells having neurites with a length of at least two times as large as the diameter of cells to the total number of cells ([1]; 1 mM): 20.4 ± 4.9%; Estimated LD50 ([2]; in vivo, ip): 250 to 500 mg/kg
O=C1CCCN1c1ccnc(N2CCC(c3ccccc3)CC2)n1 [Compound 280] | 6.9 ± 1.4% | > 1000 mg/kg |  |  | 7.5 ± 1.1% |  |  | Ratio of the number of cells having neurites with a length of at least two times as large as the diameter of cells to the total number of cells ([1]; 0.01 mM): 7.1 ± 1.7%; Ratio of the number of cells having neurites with a length of at least two times as large as the diameter of cells to the total number of cells ([1]; 1 mM): 8.1 ± 6.3%
O=C1CCCCN1c1ccnc(N2CCCCC2)n1 [Compound 288] |  | > 1000 mg/kg |  |  |  |  |  | 
O=C1CCCCN1c1ccnc(N2CCC(c3ccccc3)CC2)n1 [Compound 296] |  | > 1000 mg/kg |  |  |  |  |  | 
